Experimental data: ChEMBL document CHEMBL1201862, “PubChem BioAssay data set” (2004)
One block for each molecule: values may come before it. Calls of active or inactive are those of the source.

What was measured:
[1] = molecular target: Alkaline phosphatase, placental type (Homo sapiens, UniProt P05187); assay: human placental alkaline phosphatase inhibition – biochemical, luminescence, confirmation (AID 1512); assay type: functional
[2] = molecular target: Glyceraldehyde-3-phosphate dehydrogenase (Homo sapiens, UniProt P04406)
Chain of Glyceraldehyde-3-phosphate dehydrogenase (P04406 whole entry): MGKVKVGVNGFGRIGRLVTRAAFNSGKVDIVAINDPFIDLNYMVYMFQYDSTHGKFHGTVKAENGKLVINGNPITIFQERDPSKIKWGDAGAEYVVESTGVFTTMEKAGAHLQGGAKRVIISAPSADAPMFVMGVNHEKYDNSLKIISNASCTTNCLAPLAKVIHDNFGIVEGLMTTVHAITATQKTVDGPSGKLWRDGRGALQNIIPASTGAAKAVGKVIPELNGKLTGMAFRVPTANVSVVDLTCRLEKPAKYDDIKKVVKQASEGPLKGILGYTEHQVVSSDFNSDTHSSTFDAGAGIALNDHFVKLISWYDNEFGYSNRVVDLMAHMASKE

[3] = molecular target: T1, Alkaline phosphatase, tissue-nonspecific isozyme (Homo sapiens, UniProt P05186); assay: potency against alkaline phosphatase TNAP – biochemical, luminescent, dose response, SAR follow-up (AID 1056)
T1 sequence (P05186 whole entry): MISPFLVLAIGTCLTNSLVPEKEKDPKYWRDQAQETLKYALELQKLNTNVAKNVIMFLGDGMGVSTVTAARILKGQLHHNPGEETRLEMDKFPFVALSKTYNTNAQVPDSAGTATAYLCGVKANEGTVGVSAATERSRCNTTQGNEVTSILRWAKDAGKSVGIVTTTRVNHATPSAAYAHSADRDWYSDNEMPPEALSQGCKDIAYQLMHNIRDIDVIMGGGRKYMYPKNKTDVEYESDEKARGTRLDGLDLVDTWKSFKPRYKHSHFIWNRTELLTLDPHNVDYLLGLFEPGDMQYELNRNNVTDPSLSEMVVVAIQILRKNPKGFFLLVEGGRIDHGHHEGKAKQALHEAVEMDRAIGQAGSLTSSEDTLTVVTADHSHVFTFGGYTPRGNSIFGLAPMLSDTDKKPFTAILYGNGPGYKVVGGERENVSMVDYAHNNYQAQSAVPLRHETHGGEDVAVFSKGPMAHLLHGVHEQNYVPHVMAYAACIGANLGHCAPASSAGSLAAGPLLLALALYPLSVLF

[4] = molecular target: Luciferin 4-monooxygenase (Photinus pyralis, UniProt P08659); assay: inhibition of purified Photinus pyralis luciferase – biochemical, luminescence, dose response (AID 1891)
Chain of Luciferin 4-monooxygenase (P08659 whole entry): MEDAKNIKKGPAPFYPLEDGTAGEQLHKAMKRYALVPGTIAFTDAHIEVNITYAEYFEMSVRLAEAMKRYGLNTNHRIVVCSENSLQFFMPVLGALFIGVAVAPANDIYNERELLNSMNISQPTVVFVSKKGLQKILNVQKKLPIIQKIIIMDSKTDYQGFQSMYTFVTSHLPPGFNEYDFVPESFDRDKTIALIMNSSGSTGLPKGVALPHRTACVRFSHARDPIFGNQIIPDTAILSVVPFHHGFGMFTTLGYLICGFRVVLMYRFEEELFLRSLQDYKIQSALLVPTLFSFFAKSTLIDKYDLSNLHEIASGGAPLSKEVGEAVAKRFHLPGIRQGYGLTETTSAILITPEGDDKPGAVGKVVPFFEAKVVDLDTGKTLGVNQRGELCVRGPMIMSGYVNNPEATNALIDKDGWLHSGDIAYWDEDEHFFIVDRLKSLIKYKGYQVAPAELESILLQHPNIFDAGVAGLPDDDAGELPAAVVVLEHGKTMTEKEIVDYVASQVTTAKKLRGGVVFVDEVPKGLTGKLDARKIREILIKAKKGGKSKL

[5] = DRD fibroblast viability loss – cell-based, non-viral oncogenic, luminescence, dose response (AID 1934); assay type: functional; settings: Homo sapiens
[6] = Luminescence Cell-Based Dose Confirmation HTS to Identify Inhibitors of Platelet Dense Granule Release. [Related pubchem assays: 1663 (Primary HTS), 1678 (Summary of Project)]; assay type: functional
[7] = test system: BJ; assay: BJ-TERT fibroblast viability loss – cell-based, RAS-independent, luminescence, dose response (AID 1933); assay type: functional; settings: Homo sapiens
[8] = test system: BJ; assay: BJ-TERT-LT-ST fibroblast viability loss – cell-based, RAS-independent, luminescence, dose response (AID 1935); assay type: functional; settings: Homo sapiens;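 further: BJ fibroblasts immortalized with TERT plus LT and ST oncogenes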
[9] = test system: BJ; assay: cells; assay type: functional, cell-based; settings: Homo sapiens
[10] = Luminescence-based counterscreen assay for KLF5 inhibitors: dose response cell-based high throughput screening assay to identify cytotoxic compounds using the IEC-6 intestinal epithelial cell line. [Related pubchem assays: 1700 (Primary screen.), 1834 (Confirmation screen.), 1858 (Summary AID.), 1905 (Counterscreen.)]; assay type: functional
[11] = cells
[12] = molecular target: T2, Oxysterols receptor LXR-beta (Homo sapiens, UniProt P55055); assay type: functional, cell-based;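 further: Cell-based luminescence dose-response assay of agonist activity at LXR, run as a confirmatory counterscreen to a daf-12 agonist screen; HEK293 cells with Gal4-LXR fusion and GAL4-driven luciferase reporter; agonist potency from rising luciferase signal of a Gal4-LXR reporter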
T2 sequence (P55055 whole entry): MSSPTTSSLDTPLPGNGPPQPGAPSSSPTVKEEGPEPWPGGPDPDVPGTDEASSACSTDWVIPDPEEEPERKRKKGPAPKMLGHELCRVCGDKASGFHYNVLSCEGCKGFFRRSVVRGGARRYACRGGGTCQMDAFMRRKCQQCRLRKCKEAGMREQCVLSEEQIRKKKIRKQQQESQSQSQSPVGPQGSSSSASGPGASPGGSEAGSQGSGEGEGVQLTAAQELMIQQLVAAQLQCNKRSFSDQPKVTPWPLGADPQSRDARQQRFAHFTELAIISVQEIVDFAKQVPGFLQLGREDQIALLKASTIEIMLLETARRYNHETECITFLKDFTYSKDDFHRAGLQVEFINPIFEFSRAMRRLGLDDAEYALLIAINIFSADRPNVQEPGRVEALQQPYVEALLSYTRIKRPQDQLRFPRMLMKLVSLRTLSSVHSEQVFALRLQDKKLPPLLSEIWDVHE

[13] = cells; assay type: functional, cell-based
[14] = molecular target: T3, Nuclear receptor subfamily 0 group B member 1 (Homo sapiens, UniProt P51843); assay type: functional, cell-based;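 further: HEK293T cells transfected with SF-1 and DAX-1 plus StAR promoter luciferase reporter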
T3 sequence (P51843 whole entry): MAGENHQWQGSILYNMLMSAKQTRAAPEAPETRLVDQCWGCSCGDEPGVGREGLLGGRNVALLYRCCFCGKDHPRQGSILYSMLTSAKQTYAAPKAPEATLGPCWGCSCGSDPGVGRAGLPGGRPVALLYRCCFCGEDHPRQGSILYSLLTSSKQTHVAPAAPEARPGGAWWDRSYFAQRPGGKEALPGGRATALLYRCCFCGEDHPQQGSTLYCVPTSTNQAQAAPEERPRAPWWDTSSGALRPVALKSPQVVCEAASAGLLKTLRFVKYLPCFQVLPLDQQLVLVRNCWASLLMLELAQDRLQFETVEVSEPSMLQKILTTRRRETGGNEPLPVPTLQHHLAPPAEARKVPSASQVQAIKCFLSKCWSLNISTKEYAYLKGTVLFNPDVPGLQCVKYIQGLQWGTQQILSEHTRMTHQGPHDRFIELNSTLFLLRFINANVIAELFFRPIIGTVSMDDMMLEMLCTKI

[15] = molecular target: T4, Neuropeptides B/W receptor type 1 (Homo sapiens, UniProt P48145); assay: human NPBW1 receptor blockade, IC50 – cell-based, fluorescence, dose response, late-stage follow-up (AID 463251); assay type: functional
T4 sequence (P48145 whole entry): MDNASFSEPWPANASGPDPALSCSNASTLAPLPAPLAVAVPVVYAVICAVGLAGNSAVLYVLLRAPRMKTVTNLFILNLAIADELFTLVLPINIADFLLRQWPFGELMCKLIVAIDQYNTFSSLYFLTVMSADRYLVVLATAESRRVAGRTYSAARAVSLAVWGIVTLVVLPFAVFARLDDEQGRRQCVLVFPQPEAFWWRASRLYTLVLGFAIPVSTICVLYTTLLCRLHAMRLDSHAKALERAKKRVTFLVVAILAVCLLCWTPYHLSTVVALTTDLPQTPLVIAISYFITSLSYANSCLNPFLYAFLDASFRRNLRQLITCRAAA

[16] = molecular target: Melanin-concentrating hormone receptor 1 (Homo sapiens, UniProt Q99705); assay: Late-stage fluorescence-based counterscreen for antagonists of the G-protein coupled receptor 7 (GPR7): cell-based dose response assay to identify antagonists of the melanin-concentrating hormone receptor 1 (MCHR1). [Related pubchem assays (depositor defined):AID1861, AID1880, AID1952, AID2148, AID2251, AID2257, AID485339]; assay type: functional;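 further: stimulated with 30 nM MCH peptide agonist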
Chain of Melanin-concentrating hormone receptor 1 (Q99705 whole entry): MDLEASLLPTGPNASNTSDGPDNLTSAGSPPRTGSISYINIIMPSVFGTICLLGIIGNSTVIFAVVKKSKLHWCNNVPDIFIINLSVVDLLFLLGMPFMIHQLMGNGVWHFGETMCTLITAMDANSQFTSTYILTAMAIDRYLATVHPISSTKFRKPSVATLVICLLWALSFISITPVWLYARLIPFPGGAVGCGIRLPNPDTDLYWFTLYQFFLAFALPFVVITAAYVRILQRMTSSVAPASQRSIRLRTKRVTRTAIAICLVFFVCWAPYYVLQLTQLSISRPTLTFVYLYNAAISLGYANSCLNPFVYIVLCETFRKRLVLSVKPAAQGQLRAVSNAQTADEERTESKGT

[17] = antiviral protection against BTV-induced cell death – arbovirus, BSR cells, confirmation (AID 1250); assay type: functional;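 further: protection from viral cytopathic effect measured as cell viability by ATP luminescence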
[18] = molecular target: X-box-binding protein 1 (Homo sapiens, UniProt P17861); assay type: functional, Cricetulus griseus;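 further: confirmatory dose-response counter-screen serving a CHOP assay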
Chain of X-box-binding protein 1 (P17861 whole entry): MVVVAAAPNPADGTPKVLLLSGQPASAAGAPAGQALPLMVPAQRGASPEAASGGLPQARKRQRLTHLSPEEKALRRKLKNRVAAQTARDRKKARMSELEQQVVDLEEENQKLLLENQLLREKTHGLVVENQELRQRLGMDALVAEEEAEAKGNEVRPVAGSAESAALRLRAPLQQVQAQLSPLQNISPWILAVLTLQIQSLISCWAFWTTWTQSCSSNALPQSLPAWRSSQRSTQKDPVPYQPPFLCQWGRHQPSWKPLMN

[19] = molecular target: 5-hydroxytryptamine receptor 5A (Homo sapiens, UniProt P47898); assay: Counterscreen for agonists of OPRM1-OPRD1 heterodimerization: luminescence-based cell-based high throughput dose response assay to identify agonists of 5-hydroxytryptamine (serotonin) 5A receptor (HTR5A). [Related pubchem assays (depositor defined):AID504326, AID504355, AID504692, AID504904, AID504905]; assay type: functional
Chain of 5-hydroxytryptamine receptor 5A (P47898 whole entry): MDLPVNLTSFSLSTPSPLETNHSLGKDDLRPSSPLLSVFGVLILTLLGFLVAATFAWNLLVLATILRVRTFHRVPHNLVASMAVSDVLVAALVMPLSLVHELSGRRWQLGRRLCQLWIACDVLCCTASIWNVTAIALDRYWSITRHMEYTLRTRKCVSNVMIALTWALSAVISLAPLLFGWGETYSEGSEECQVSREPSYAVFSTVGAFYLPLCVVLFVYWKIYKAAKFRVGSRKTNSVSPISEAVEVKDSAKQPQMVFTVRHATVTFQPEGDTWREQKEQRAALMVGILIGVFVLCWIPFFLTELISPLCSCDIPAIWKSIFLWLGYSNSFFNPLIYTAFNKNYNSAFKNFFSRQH

[20] = molecular target: Mu-type opioid receptor (Homo sapiens, UniProt P35372); assay: (§1) Counterscreen for agonists of heterodimerization of the mu 1 (OPRM1) and delta 1 (OPRD1) opioid receptors: Luminescence-based cell-based high throughput dose response assay to identify agonists of OPRM1 homodimerization.; assay type: functional
Chain of Mu-type opioid receptor (P35372 whole entry): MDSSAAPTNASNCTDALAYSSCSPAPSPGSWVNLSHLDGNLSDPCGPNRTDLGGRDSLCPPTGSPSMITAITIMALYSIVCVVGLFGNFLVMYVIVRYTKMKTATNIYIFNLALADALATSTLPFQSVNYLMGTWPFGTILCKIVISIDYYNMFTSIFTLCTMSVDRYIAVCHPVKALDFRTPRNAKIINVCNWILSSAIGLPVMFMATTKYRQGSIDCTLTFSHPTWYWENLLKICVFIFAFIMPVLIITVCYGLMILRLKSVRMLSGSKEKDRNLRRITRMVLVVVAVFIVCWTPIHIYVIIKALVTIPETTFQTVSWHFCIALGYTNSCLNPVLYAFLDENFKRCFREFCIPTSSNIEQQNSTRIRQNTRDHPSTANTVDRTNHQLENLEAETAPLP

[21] = molecular target: Delta-type opioid receptor (Homo sapiens, UniProt P41143); assay: as §1, with “of OPRD1” for “of OPRM1”, “homodimerization. [Related pubchem assays (depositor defined):AID504326, AID504355, AID504692, AID504904, AID504905]” for “homodimerization.”; assay type: functional
Chain of Delta-type opioid receptor (P41143 whole entry): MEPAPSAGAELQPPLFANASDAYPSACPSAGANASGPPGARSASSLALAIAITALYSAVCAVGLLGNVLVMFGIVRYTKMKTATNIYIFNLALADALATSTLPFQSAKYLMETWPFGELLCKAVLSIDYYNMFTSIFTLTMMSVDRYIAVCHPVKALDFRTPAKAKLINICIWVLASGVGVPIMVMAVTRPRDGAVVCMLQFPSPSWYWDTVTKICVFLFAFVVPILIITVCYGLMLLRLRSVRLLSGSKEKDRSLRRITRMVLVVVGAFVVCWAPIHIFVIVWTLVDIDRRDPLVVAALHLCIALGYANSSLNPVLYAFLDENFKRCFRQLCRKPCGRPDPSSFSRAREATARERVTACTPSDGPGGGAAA

[22] = molecular target: T5, Caspase-7 (Homo sapiens, UniProt P55210); assay: potency of procaspase-7 enzyme activation – biochemical, absorbance, human, dual procaspase-3/-7 activator project, dose response (AID 504330)
T5 sequence (P55210 whole entry): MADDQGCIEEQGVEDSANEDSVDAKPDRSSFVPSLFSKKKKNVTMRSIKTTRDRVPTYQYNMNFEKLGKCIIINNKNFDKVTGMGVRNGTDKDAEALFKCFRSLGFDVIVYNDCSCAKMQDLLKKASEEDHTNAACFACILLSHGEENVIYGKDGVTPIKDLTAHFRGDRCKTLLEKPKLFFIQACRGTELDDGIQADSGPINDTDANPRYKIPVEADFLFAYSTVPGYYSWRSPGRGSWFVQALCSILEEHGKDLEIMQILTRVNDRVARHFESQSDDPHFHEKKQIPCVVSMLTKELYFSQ

[23] = molecular target: T6, Caspase-3 (Homo sapiens, UniProt P42574); assay: activators of human procaspase-3 D3A mutant – biochemical, absorbance, PC-3 D3A mutant, counter-screen for dual procaspase-3/7 activator project, dose response (AID 504328)
T6 sequence (P42574 whole entry): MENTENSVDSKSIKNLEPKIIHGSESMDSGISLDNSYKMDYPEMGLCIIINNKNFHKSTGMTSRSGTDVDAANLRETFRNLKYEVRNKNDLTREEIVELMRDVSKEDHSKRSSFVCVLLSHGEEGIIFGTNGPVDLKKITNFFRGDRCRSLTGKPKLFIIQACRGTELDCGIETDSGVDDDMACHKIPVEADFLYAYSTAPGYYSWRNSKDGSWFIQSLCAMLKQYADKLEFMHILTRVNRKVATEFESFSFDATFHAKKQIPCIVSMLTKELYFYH

[24] = molecular target: Procathepsin L (Homo sapiens, UniProt P07711)
Chain of Procathepsin L (P07711 whole entry): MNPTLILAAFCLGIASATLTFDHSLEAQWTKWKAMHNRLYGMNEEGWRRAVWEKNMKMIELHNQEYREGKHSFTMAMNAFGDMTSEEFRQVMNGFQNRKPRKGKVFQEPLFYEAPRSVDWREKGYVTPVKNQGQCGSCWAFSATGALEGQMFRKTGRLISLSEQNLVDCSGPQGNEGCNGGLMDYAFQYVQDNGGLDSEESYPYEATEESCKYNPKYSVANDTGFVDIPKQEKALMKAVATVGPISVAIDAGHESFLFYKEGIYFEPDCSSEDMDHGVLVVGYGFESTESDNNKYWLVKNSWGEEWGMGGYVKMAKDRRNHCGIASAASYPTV

[25] = molecular target: T7, Aspartyl aminopeptidase (Plasmodium falciparum 3D7, UniProt Q8I2J3)
T7 sequence (Q8I2J3 whole entry): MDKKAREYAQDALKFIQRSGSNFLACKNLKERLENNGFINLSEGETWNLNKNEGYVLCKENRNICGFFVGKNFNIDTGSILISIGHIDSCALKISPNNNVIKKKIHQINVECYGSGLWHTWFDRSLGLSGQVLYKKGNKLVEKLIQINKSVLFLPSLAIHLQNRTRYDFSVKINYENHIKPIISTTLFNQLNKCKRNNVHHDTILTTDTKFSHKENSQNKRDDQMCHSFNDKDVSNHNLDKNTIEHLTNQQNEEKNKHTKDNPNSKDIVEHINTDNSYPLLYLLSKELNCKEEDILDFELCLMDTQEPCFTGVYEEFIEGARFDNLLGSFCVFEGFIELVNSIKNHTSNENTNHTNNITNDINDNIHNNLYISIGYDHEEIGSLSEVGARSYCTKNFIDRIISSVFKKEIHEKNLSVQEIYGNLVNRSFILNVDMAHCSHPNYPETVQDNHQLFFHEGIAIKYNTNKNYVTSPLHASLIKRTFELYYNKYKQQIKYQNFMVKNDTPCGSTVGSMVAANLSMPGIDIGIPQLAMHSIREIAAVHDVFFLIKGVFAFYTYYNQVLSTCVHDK

[26] = cells; remark: listed apart in the source

Chain of Alkaline phosphatase, placental type (P05187 whole entry): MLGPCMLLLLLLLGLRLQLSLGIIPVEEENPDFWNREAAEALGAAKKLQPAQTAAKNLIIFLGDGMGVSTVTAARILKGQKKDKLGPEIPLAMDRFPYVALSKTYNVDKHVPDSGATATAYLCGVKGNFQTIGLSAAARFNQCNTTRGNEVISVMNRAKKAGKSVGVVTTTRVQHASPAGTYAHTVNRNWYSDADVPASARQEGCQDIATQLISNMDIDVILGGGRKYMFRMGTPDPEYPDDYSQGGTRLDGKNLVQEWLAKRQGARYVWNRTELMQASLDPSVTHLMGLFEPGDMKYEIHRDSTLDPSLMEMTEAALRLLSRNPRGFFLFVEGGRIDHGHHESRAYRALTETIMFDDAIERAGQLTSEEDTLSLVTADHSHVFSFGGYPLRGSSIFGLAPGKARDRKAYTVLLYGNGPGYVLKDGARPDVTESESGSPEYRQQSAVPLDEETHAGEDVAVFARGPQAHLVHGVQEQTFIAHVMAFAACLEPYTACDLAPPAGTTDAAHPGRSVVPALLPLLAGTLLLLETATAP

SMILES: CN(CCO)c1ccc(/C=N/Nc2nncc3ccccc23)cc1
- EC50 [4]: 0.67 µM (active)
- EC50 [5]: 4.01 µM (active)
- EC50 [6]: 0.533 µM (active)
- EC50 [7]: > 150 µM (not active)
- EC50 [8]: > 150 µM (not active)
- EC50 [9]: 10.8 µM (active)
- IC50 [10]: 24.7 µM (not active)

SMILES: CCc1ccc(NC(=O)c2cnn3ccccc23)cc1
- EC50 [11]: > 67.5 µM (inactive)
- EC50 [12]: > 67.5 µM (inactive)
- IC50 [13]: > 67.5 µM (inactive)
- IC50 [10]: > 39.8 µM (not active)
- IC50 [14]: > 0.0926 µM (active)

SMILES: CCOC(=O)c1c(-c2ccc(C)o2)csc1NC(=S)NC(=O)c1ccccc1Br
- IC50 [17]: 37.3 µM (active)

SMILES: Cc1nn(-c2cc(C(F)(F)F)ccc2Cl)c2nc(C(F)(F)F)nc(O)c12
- IC50 [17]: 22.5 µM (active)

SMILES: O=C(NCc1ccccc1Cl)C1CCN(S(=O)(=O)c2cccc3nonc23)CC1
- IC50 [26]: 27.2 µM (active)

The next lines start with the values.

- IC50 [1]: > 100 µM (inactive)
- IC50 [2]: > 100 µM (not active)
- IC50 [3]: 6.57 µM (active)
SMILES: O=C(c1cc(-c2ccc(Cl)cc2Cl)n[nH]1)N1CCCC1

- IC50 [15]: 8.7 µM (active)
- IC50 [16]: 8 µM (active)
SMILES: O=c1c(Oc2ccc(O)cc2)c(Cl)cnn1-c1ccc(F)cc1

- Absolute IC50 (XBP1) [18]: 10 µM
- EC50 [19]: > 92.5 µM (inactive)
- EC50 [20]: > 92.5 µM (inactive)
- EC50 [21]: > 92.5 µM (inactive)
SMILES: COc1cc(C(=O)OC(C)C(=O)NCC2CCCCC2)cc(NC(=O)c2ccco2)c1OC (stereo not drawn)

- EC50 [22]: > 85.3 µM (inactive)
- EC50 [23]: > 85.3 µM (inactive)
SMILES: O=C(Nc1ccc(Cc2ccncc2)cc1)C1CCC(N2C(=O)C3C4C=CC(C5CC45)C3C2=O)CC1 (stereo not drawn)

- IC50 [24]: > 59.6 µM (not active)
- IC50 [25]: 2.55 µM (active)
SMILES: Cc1cc(OCC(=O)Nn2cnnc2)ccc1Br
